This assay concerns the target IRAK4 (Homo sapiens (Human), UniProt Q9NWZ3). Nature of the assay: IRAK4 Kinase Assay. Conditions: IMAP fluorescence polarization, 0.5 nM GST tagged IRAK4, 100 μM ATP, 30 minutes at 25° C.; read-out: IRAK4 IC50. It counts as biochemical. For orientation: Polarisation of emitted light reports the rotation of a fluorescent probe.

Where a name gives a salt, the structure may show the parent alone.

Chain of IRAK4 (Q9NWZ3 whole entry): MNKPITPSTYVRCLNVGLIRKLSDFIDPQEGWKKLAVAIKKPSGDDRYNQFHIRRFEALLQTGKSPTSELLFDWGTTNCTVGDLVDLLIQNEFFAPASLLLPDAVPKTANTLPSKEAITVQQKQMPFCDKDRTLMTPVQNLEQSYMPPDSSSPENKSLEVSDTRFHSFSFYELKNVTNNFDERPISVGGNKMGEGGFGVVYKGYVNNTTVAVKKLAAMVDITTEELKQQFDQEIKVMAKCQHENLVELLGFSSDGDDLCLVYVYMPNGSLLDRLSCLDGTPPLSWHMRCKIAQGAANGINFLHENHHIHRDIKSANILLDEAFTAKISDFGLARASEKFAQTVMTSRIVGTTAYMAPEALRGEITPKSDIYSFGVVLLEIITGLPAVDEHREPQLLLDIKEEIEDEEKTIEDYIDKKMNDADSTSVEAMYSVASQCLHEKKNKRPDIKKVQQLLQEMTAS
Protocol: The kinase activity of IRAK4 is determined by its ability to catalyze the phosphorylation of a fluorescent polypeptide substrate. The extent of phosphorylation is measured using the IMAP technology (Molecular Devices) where the phosphorylated fluorescent substrate binds to the large M(III)-based nanoparticles which reduces the rotational speed of the substrate and thus increases its fluorescent polarization (FP).
20 μL reaction mixture contains 10 mM TriHCl, pH 7.2, 0.5 nM GST tagged IRAK4 (SignalChem), 100 nM fluorescent peptide substrate (RP7030, Molecular Devices), 100 μM ATP, 1 mM DDT, 1 mM MgCl2, and 0.01% Tween 20. The reaction is initiated by the addition of ATP. After incubation for 30 minutes at 25° C., 60 μL of Progressive IMAP Reagent (Molecular Devices) is added to stop the reaction. Change in RP7030's FP is determined by a FP reader (Analyst HT, LJL BioSystems).

As to `N[C@@H]1[C@H](Nc2ccn3ncc(C(=O)Nc4cscc4C(F)F)c3n2)CCCC1(F)F` [Example 121, 5-{[(1R,2R)-2-amino-3,3-difluorocyclohexyl]amino}-N-[4-(difluoromethyl)thiophen-3-yl]pyrazolo[1,5-a]pyrimidine-3-carboxamide trifluoroacetate], the 50% inhibitory concentration (IC50) came to 124 nM.

As to `Cn1cc(NC(=O)c2cnn3ccc(N[C@H]4CNCC[C@@H]4F)nc23)c(C(F)(F)F)n1` (single isomer, unassigned) [Example 233, 5-{[(3R,4R)- or (3S,4S)-4-fluoropiperidin-3-yl]amino}-N-[1-methyl-3-(trifluoromethyl)-1H-pyrazol-4-yl]pyrazolo[1,5-a]pyrimidine-3-carboxamide], the IC50 came out at 0.5 nM.

For `Cn1cc(NC(=O)c2cnn3ccc(NC4CNCCC4F)nc23)c(C(F)F)n1` (single isomer, unassigned) [Example 237, N-[3-(difluoromethyl)-1-methyl-1H-pyrazol-4-yl]-5-[(3R or S, 4R or S-4-fluoropiperidin-3-yl)amino]pyrazolo[1,5-a]pyrimidine-3-carboxamide], the half-inhibitory concentration (IC50) stood at 0.6 nM.

As for `Cn1cc(NC(=O)c2cnn3ccc(N[C@H]4C(O)CCC[C@H]4N)nc23)c(C(F)(F)F)n1` (single isomer, unassigned) [Example 202, 5-{[(1R,2R)- or (1S,2S)-2-amino-6-hydroxycyclohexyl]amino}-N-[1-methyl-3-(trifluoromethyl)-1H-pyrazol-4-yl]pyrazolo[1,5-a]pyrimidine-3-carboxamide], the IC50 stood at 4 nM.

Consider `N[C@H]1CCCC[C@H]1Nc1ccn2ncc(C(=O)Nc3ccncc3C(F)(F)F)c2n1` [Example 31, 5-{[(1R,2S)-2-aminocyclohexyl]amino}-N-[3-(trifluoromethyl)pyridin-4-yl]pyrazolo[1,5-a]pyrimidine-3-carboxamide formate], for which the IC50 was 4 nM.

Turning to `N[C@@H]1[C@H](Nc2ccn3ncc(C(=O)Nc4ccsc4Cl)c3n2)CCCC1(F)F` [Example 118, 5-{[(1R,2R)-2-amino-3,3-difluorocyclohexyl]amino}-N-(2-chlorothiophen-3-yl)pyrazolo[1,5-a]pyrimidine-3-carboxamide trifluoroacetate], the half-inhibitory concentration (IC50) worked out at 342 nM.

Take `Cn1cc(NC(=O)c2cnn3ccc(N4C5CCC4CNC5)nc23)c(C(F)F)n1` [Example 229, 5-(3,8-diazabicyclo[3.2.1]oct-8-yl)-N-[3-(difluoromethyl)-1-methyl-1H-pyrazol-4-yl]pyrazolo[1,5-a]pyrimidine-3-carboxamide trifluoroacetate]: the IC50 turned out to be 0.5 nM.

Consider `O=C(Nc1cn(C(F)F)nc1C(F)(F)F)c1cnn2ccc(N3CCNCC4(CC4)C3)nc12` [Example 68, 5-(5,8-diazaspiro[2.6]non-5-yl)-N-[1-(difluoromethyl)-3-(trifluoromethyl)-1H-pyrazol-4-yl]pyrazolo[1,5-a]pyrimidine-3-carboxamide trifluoroacetate], for which the IC50 came out at 32 nM.

For the molecule `Cn1cc(NC(=O)c2cnn3ccc(N4CC5CNC(C5)C4)nc23)c(C(F)(F)F)n1` (stereo not shown) [Example 223, 5-(3,6-diazabicyclo[3.2.1]oct-3-yl)-N-[1-methyl-3-(trifluoromethyl)-1H-pyrazol-4-yl]pyrazolo[1,5-a]pyrimidine-3-carboxamide trifluoroacetate], the 50% inhibitory concentration (IC50) was found to be 57 nM.

Consider `O=C(Nc1cn(CC(F)F)nc1C(F)(F)F)c1cnn2ccc(N3CCNCC3)nc12` [Example 62, N-[1-(2,2-difluoroethyl)-3-(trifluoromethyl)-1H-pyrazol-4-yl]-5-piperazin-1-ylpyrazolo[1,5-a]pyrimidine-3-carboxamide trifluoroacetate], for which the IC50 turned out to be 29 nM.

As to `C[C@@H]1CN[C@@H](C)CN1c1ccn2ncc(C(=O)Nc3cn(C)nc3C(F)(F)F)c2n1` (relative stereo) [Example 93, 5-[trans-2,5-dimethylpiperazin-1-yl]-N-[1-methyl-3-(trifluoromethyl)-1H-pyrazol-4-yl]pyrazolo[1,5-a]pyrimidine-3-carboxamide trifluoroacetate], the IC50 stood at 30 nM.

Take `Cn1cc(NC(=O)c2cnn3ccc(N[C@@H]4CNCC[C@@H]4F)nc23)c(C(F)(F)F)n1` (single isomer, unassigned) [Example 230, 5-{[(3R,4S)- or (3S,4R)-4-fluoropiperidin-3-yl]amino}-N-[1-methyl-3-(trifluoromethyl)-1H-pyrazol-4-yl]pyrazolo[1,5-a]pyrimidine-3-carboxamide]: the IC50 is 0.5 nM.

As to `Cn1cc(NC(=O)c2cnn3ccc(N4CCNCC(F)C4)nc23)c(C(F)(F)F)n1` (stereo not shown) [Example 27, 5-(6-fluoro-1,4-diazepan-1-yl)-N-[1-methyl-3-(trifluoromethyl)-1H-pyrazol-4-yl]pyrazolo[1,5-a]pyrimidine-3-carboxamide trifluoroacetate], the IC50 is 149 nM.

Turning to `O=C(Nc1cscc1Br)c1cnn2ccc(N3CC4CCC3CN4)nc12` (stereo not shown) [Example 124, N-(4-bromothiophen-3-yl)-5-(2,5-diazabicyclo[2.2.2]oct-2-yl)pyrazolo[1,5-a]pyrimidine-3-carboxamide trifluoroacetate], the IC50 is 245 nM.

Regarding `Cn1cc(NC(=O)c2cnn3ccc(N4CCN5CCC4C5)nc23)c(C(F)(F)F)n1` (stereo not shown) [Example 43, 5-(1,4-diazabicyclo[3.2.1]oct-4-yl)-N-[1-methyl-3-(trifluoromethyl)-1H-pyrazol-4-yl]pyrazolo[1,5-a]pyrimidine-3-carboxamide trifluoroacetate], the IC50 was 45 nM.

Regarding `Cn1cc(NC(=O)c2cnn3ccc(N4CCNCC5(CC5)C4)nc23)c(C(F)F)n1` [Example 86, 5-(5,8-diazaspiro[2.6]non-5-yl)-N-[3-(difluoromethyl)-1-methyl-1H-pyrazol-4-yl]pyrazolo[1,5-a]pyrimidine-3-carboxamide trifluoroacetate], the IC50 was 2 nM.

As for `Cn1cc(NC(=O)c2cnn3ccc(NC4CNCC(F)(F)C4)nc23)c(C(F)(F)F)n1` (stereo not shown) [Example 217, 5-[(5,5-difluoropiperidin-3-yl)amino]-N-[1-methyl-3-(trifluoromethyl)-1H-pyrazol-4-yl]pyrazolo[1,5-a]pyrimidine-3-carboxamide], the concentration for half-maximal inhibition (IC50) stood at 47 nM.

In the case of `Cn1cc(NC(=O)c2cnn3ccc(N[C@@H]4CCCC[C@@H]4O)nc23)c(Cl)n1` [Example 186, N-(3-chloro-1-methyl-1H-pyrazol-4-yl)-5-{[(1R,2S)-2-hydroxycyclohexyl]amino} pyrazolo[1,5-a]pyrimidine-3-carboxamide], the concentration for half-maximal inhibition (IC50) was 24 nM.

For `O=C(Nc1cscc1Cl)c1cnn2ccc(N3C[C@H]4CC[C@@H]3CN4)nc12` (single isomer, unassigned) [Example 171, N-(4-chlorothiophen-3-yl)-5-[(1S,4S)- or (1R,4R)-2,5-diazabicyclo[2.2.2]oct-2-yl]pyrazolo[1,5-a]pyrimidine-3-carboxamide trifluoroacetate], the IC50 stood at 383 nM.

As for `Cn1cc(NC(=O)c2cnn3ccc(N4CC5CCC(C4)N5)nc23)c(C(F)(F)F)n1` [Example 81, 5-(3,8-diazabicyclo[3.2.1]oct-3-yl)-N-[1-methyl-3-(trifluoromethyl)-1H-pyrazol-4-yl]pyrazolo[1,5-a]pyrimidine-3-carboxamide trifluoroacetate], the IC50 is 9 nM.

On to `Cn1cc(NC(=O)c2cnn3ccc(N[C@H]4CNCC(F)(F)C4)nc23)c(C(F)(F)F)n1` (single isomer, unassigned) [Example 219, 5-{[(3S)- or (3R)-5,5-difluoropiperidin-3-yl]amino}-N-[1-methyl-3-(trifluoromethyl)-1H-pyrazol-4-yl]pyrazolo[1,5-a]pyrimidine-3-carboxamide], for which the IC50 was found to be 7 nM.

`Cn1cc(NC(=O)c2cnn3ccc(N4[C@@H]5CC[C@H]4[C@@H]4CC[C@H]5N4)nc23)c(C(F)(F)F)n1` [Example 92, 5-[9,10-diazatricyclo[4.2.1.1~2,5~]dec-9-yl]-N-]1-methyl-3-(trifluoromethyl)-1H-pyrazol-4-yl]pyrazolo[1,5-a]pyrimidine-3-carboxamide trifluoroacetate]: the IC50 was found to be 115 nM.

Regarding `N#Cc1sccc1NC(=O)c1cnn2ccc(N[C@@H]3CCCC(F)(F)[C@@H]3N)nc12` [Example 133, 5-{[(1R,2R)-2-amino-3,3-difluorocyclohexyl]amino}-N-(2-cyanothiophen-3-yl)pyrazolo[1,5-a]pyrimidine-3-carboxamide trifluoroacetate], the half-inhibitory concentration (IC50) is 95 nM.

In the case of `Cn1cc(NC(=O)c2cnn3ccc(N4C[C@@H](O)C[C@H](O)C4)nc23)c(C(F)(F)F)n1` [Example 21, 5-[(3S,5S)-3,5-dihydroxypiperidin-1-yl]-N-[1-methyl-3-(trifluoromethyl)-1H-pyrazol-4-yl]pyrazolo[1,5-a]pyrimidine-3-carboxamide], the IC50 was 20 nM.

On to `Cn1cc(NC(=O)c2cnn3ccc(N4CC5CNCC4C5)nc23)c(C(F)F)n1` (stereo not shown) [Example 238, 5-[3,6-diazabicyclo[3.2.1]oct-6-yl]-N-[3-(difluoromethyl)-1-methyl-1H-pyrazol-4-yl]pyrazolo[1,5-a]pyrimidine-3-carboxamide], for which the concentration for half-maximal inhibition (IC50) stood at 4 nM.

As to `Cn1cc(NC(=O)c2cnn3ccc(N[C@@H]4CCCNC4)nc23)c(C(F)F)n1` [Example 91, N-[3-(difluoromethyl)-1-methyl-1H-pyrazol-4-yl]-5-[(3R)-piperidin-3-ylamino]pyrazolo[1,5-a]pyrimidine-3-carboxamide trifluoroacetate], the IC50 turned out to be 0.5 nM.

Regarding `O=C(Nc1cn(CC(F)(F)F)nc1C(F)(F)F)c1cnn2ccc(N3CCNCC4(CC4)C3)nc12` [Example 70, 5-(5,8-diazaspiro[2.6]non-5-yl)-N-[1-(2,2,2-trifluoroethyl)-3-(trifluoromethyl)-1H-pyrazol-4-yl]pyrazolo[1,5-a]pyrimidine-3-carboxamide trifluoroacetate], the IC50 is 51 nM.

`CN1CCN(c2ccn3ncc(C(=O)Nc4cn(C)nc4C(F)(F)F)c3n2)C(C)(C)C1` [Example 35, N-[1-methyl-3-(trifluoromethyl)-1H-pyrazol-4-yl]-5-(2,2,4-trimethylpiperazin-1-yl)pyrazolo[1,5-a]pyrimidine-3-carboxamide trifluoroacetate]: the IC50 is 589 nM.

What is called IC50 is the point on the concentration scale where inhibition reaches its midpoint.

The values above are taken from US10329294B2, “Pyrazolopyrimidine inhibitors of IRAK4 activity” (MERCK SHARP & DOHME CORP., priority 2015, dated 2019).
